Laboratory results: patent US20090208508A1, “NOVEL USE OF UBIQUITIN C-TERMINAL HYDROLASE-L1” (SK CORPORATION, priority 2005, published 2009)

Key:
UCH-L1 [1] = assay: Preliminary experiments: UCH-L1 expression level with siRNA on human-base sequences; format: cell-based
[2] = test system: B16F10 mouse melanoma cells; assay: Experimental pulmonary metastasis: B16F10 stable cells injected into tail vein, black colonies on lung surface counted; format: in vivo, BALB/C nude mouse; settings: 1x10^6 cells single-injected into tail vein, 14th day after injection, vs control B16F10 cells expressing irrelevant RNAi
Method: We tried to elucidate whether UCH-L1 is a key target molecule related to cancer metastasis through the experimental metastasis using animal model. Normal B16F10 mouse melanoma cells are highly invasive and its first target organ in metastatic process is lung. Using lentivirus-based system, we prepared the B16F10 stable cells in which UCH-L1 was knock-downed.
After preparing B16F10 stable cells, we examined whether the metastasis to lung was decreased when the B16F 10 stable cells were injected intravenously into the tail vein.
As stated above, after the UCH-L1 expression knock-downed B 16F 10 stable cells were selected with Zeocin, these cells (1[…]10^6 cells) were single-injected into the tail vein of BALB/C nude mouse. On 14th day after injection, the metastasis to lung was investigated. (For control set, BALB/C mouse were injected with same amount of B16F10 stable cells expressing irrelevant RNAi (control lentiviral vector))

UCH-L1 [3] = assay: Western blotting of UCH-L1 expression in B16F10 stable cells expressing UCH-L1 specific RNAi (lentivirus); format: cell-based, mouse; settings: Zeocin-selected, in comparison with normal B16F10 cells and cells expressing irrelevant RNAi (SEQ ID No. 3)
Method: The expression level of UCH-L1 in B16F10 mouse melanoma cell line was analyzed by using the Western blotting with anti-UCH-L1 antibody in comparison with that of H157 lung cancer cell line overexpressing UCH-L1. It was determined that UCH-L1 is expressed also in B16F10 cell lines.
B16F10 cells (2.5×10^5 cells, 70˜80% confluency) were seeded on the cell culture dish. After 24 h, these cells were infected with 1 mL of lentivirus (VCA™, Vectorcorea, Inc., Seoul, Korea) expressing irrelevant RNAi or UCH-L1 specific RNAi. 500 μL ( ? ) (virus titer 1[…]10^7 IFU/mL) of lentivirus expressing the sequence specific shRNAi (SEQ ID Nos. 3, 8, 9, and 10) was used for infection of 2.5×10^5 of B16F10 cells.
Polyburene ([…]) was added thereto, then the cell culture dish was shaken slowly up and down. After incubation for 6 h at 37[…] under 5% CO2, the virus soup was changed with the RPMI-1640 supplemented with 10% FBS. B16F10 cells were infected at twice with lentivirus on 24th hour after the first infection. However the incubation time for second infection was 12 h, not 6 h. After 24 h from the second infection, B16F 10 cells were harvested with trypsin and subcultured on the other dish by diluting the cells with RPMI-1640 (1/16 dilution).
After 24 h, cells were maintained with the cell culture media with 5 μg/mL of Zeocin. For about 14 days, the cell culture media was changed with fresh media containing same amount of Zeocin every three days. On 14th day after start of selection with Zeocin, only cells having the resistance to Zeocin were survival and these cells were infected with lentivirus stably expressing UCH-L1 specific RNAi (shRNAi, short hairpin RNA). On 14th day after start of selection with Zeocin, the colony was formed by the cells having the resistance to Zeocin. The colonized cells were selected and re-subcultured with fresh media. From this method, we could prepare UCH-L1 expression reduced stable cell lines. […]

UCH-L1 [4] = assay: Preliminary experiments: UCH-L1 expression level with siRNA on mouse-base sequences; format: cell-based

Substance	expression level of UCH-L1 (UCH-L1 [1])	reduction of metastasis to lung (black spherical colonies on lung surface) [2]	expression of UCH-L1 (Western blotting) (UCH-L1 [3])	expression level of UCH-L1 (UCH-L1 [4])
ha: UCH-L1 specific shRNAi (SEQ ID No. 8), target sequence common to human and mouse, expressed by lentivirus (guide CCCGAGATGCTGAACAAAG; listed as Homo sapiens)	effectively reduced	92%	reduced	effectively reduced
ma: UCH-L1 specific shRNAi (SEQ ID No. 9), mouse target sequence, expressed by lentivirus (guide AGCTGAAGCCGATGGAGATTA; listed as Mus musculus)	–	–	not reduced	–
mb: UCH-L1 specific shRNAi (SEQ ID No. 10), mouse target sequence, expressed by lentivirus (guide CCTAAAGTTTACTTCATGAAG; listed as Mus musculus)	–	62%	reduced	effectively reduced
